Where a SMILES comes first, the peptide text is derived from it. [ ]: non-standard residue; d: D form. Dmt = Cc1cc(O)cc(C)c1C[C@H](N)C(=O)O
Legend:
[1] = system: DBA/2 mice islets; experiment: Islets isolated from donor mice pre-treated with SS-31 (TMRM, yield, Annexin V/PI flow cytometry); assay type: in vivo
Experimental: FIG. 33A-33B. SS peptides penetrate islet cells, co-localize with mitochondria and preserve islet mitochondrial membrane potential. (A) Islet cell uptake of SS-31. DBA/2 islet cells were incubated with 1 nM of tritium labeled SS-31 and 1 μM unlabeled SS-31 at 37° C. for 1 h. Following incubation, radioactivity was measured in the medium and in cell lysates and the radioactive counts in the medium were subtracted from radioactive counts in the cell lysate and normalized to protein content. In four consecutive experiments, the mean±(SE) [^3H]SS-31 uptake was 70.2+/31 10.3 pmol/mg, of proteins (B)(i-iv) SS-31 preserves islet mitochondrial potential. DBA/2 mice were treated with SS-31 (3 mg/kg s.c. BID) or vehicle control 24 hours prior to pancreas harvest for islet isolation. SS-31 treated groups had 1 nM SS-31 added to the islet isolation reagents. Following isolation, TMRM uptake was evaluated using confocal laser scanning microscopy.
FIG. 34A-34D. SS-31 reduces islet cell apoptosis. DBA/2 mice were pre-treated (24 and 12-hours hours prior to pancreas harvest and islet isolation) with SS-31 (3 mg/kg, s.c., BID) or vehicle control. SS-31 (1 nM was added to reagents used for the isolation of islets from SS-31-treated mice. The islets were dissociated in to single cells with trypsin/EDTA and were stained with Annexin V-FITC (AnV) and propidium iodide (PI) and analyzed with the use of dual parameter low cytometry. (A) Percentage of cell undergoing early apoptosis (AnV+cells); P=0.03. (B) Percentage of cells undergoing late apoptosis/early necrosis (AnV+/PI+cells); P=0.03. (C) Percentage of necrotic cells (PI+cells); P=1.0 (D) Percentage of viable cells (AnV-/PI-cells); P=0.03. Data from individual pancreatic islet isolations and mean±SE are shown, N=number of separate islet isolations. Two-tailed P-values were calculated using Mann-Whitney t-test.
Mitochondrial depolarization and the release of cytochrome c into the cytoplasm are critical antecedent events to cell death. TMRM, a fluorescent cationic indicator is taken up into mitochondria in a potential dependent manner.
To investigate whether the SS-31 optimizes islet isolation and results in increased islet yield, islet donor mice were pre-treated with SS-31.

[2] = system: SH-SY5Y; experiment: tBHP-induced LDH release; assay type: cell-based, human; conditions: 100 μM tBHP
Experimental: FIG. 18A-18B. SS-31 reduced tBHP-induced LDH release in SH-SY5Y (A) and N2A (B) cells. Cells were treated with 100 μM tBHP alone, or with SS-31, for 24 h. *P<0.05, **P<0.01, ***P<0.001, compared to tBHP alone.
The loss of cell viability induced by 100 μM tBHP was accompanied by a significant increase in LDH release in SH-SY5Y (FIG. 18A) and N2A cell (FIG. 18B).

[3] = system: G93A transgenic familial ALS mice; experiment: Disease onset, survival and tolerability in ALS mice; assay type: in vivo; conditions: 5 mg/kg SS-31 i.p.
Experimental: FIG. 25A-25B. (A) Cumulative probability of disease on set and survival with SS-31 5 mg/kg/day treatment (n=14) […] as compared to vehicle treatment (n=14). […] (B) Mean survival (days) of G93A mice treated with vehicle or SS-31 5 mg/kg/day. (Data are mean±SD, p<0.05, Student's t-test).
Treatment with 5 mg-kg SS-31 i.p. started at 30 days of age of G93A transgenic familial amyotrophic lateral sclerosis (ALS) mice (high copy number, B6SJL-Tg(SOD1-G93A)1Gur/J) led to a significant delay of disease onset as defined by the appearance of tremor and hind limb clasping as well as deterioration in the rotarod performance, the average age of onset in the control group was 88+7 days, in the SS-31 treated group 95+6 days (p<0.05, Logrank (Mantel-Cox)). […] There was a gender effect on survival which has been observed in previous studies with this model as well in G93A mice in this background with males having a shorter life span than females (average of 5 days).

[4] = system: G93A transgenic familial ALS mice; experiment: Motor performance by rotarod in ALS mice; assay type: in vivo; conditions: between day 100 and 130
[5] = system: N2A cells; experiment: Nuclear condensation (Hoechst) after tBHP; assay type: cell-based, murine; conditions: 50 μM tBHP, 12 h
Experimental: FIG. 20A-20C. […] (A)(a-c; a′-c′) N2A cells were treated with 50 μM tBHP alone or with SS-31 for 12 h. Cells were stained with Hoechst 33342 for 20 min., fixed, and imaged by fluorescent microscopy. (a) Untreated cells show uniformly stained nuclei (a′). […] (c) Cells treated with tBHP and 1 nM SS-31 had less nuclear changes (c′). […] Apoptotic cells were counted using MetaMorph software. *P<0.01 compared to untreated cells; *P<0.01 compared to tBHP alone. […] SH-SY5Y cells were treated with 25 μM tBHP for 24 h. *P<0.01 compared to untreated cells; *P<0.01 compared to tBHP alone.
The morphological appearance of cells treated with tBHP was also consistent with apoptosis. N2A cells incubated with 50 μM tBHP for 12 h became rounded and shrunken (FIG. 20A, panel b). […] These nuclear changes were abolished by concurrent treatment with 1 nM SS-31 (FIG. 20A, panel c′).

[6] = system: N2A cells; experiment: Caspase-9 activity (FLICA) after tBHP; assay type: cell-based, murine; conditions: 50 μM tBHP, 12 h, 1 nM SS-31
Experimental: FIG. 21A-B. SS-31 prevented caspase activation in N2A cells treated with tBHP. […] (B)(a-c) N2A cells were treated with 50 μM tBHP for 12 h and stained with caspase-9 FLICA™ kit containing red fluorescent inhibitor SR-LEHD-FMK and Hoechst 33342.

[7] = system: Caco-2 cells; experiment: Mitochondrial potential (TMRM) after tBHP; assay type: cell-based, human; conditions: tBHP 1 mM, SS-02 0.1 μM, 4 h
Experimental: Caco-2 cells were treated with tBHP (1 mM) in the absence or presence of SS-02 (0.1 μM) for 4 h, and then incubated with TMRM and examined under LSCM. In control cells, the mitochondria are clearly visualized as fine streaks throughout the cytoplasm.

Molecule | uptake of TMRM by islets (mitochondrial potential) ([1]; SS-31 3 mg/kg s.c. BID to donor, 1 nM in isolation reagents) | islet yield, mean±(SE) ([1]; donor mice pre-treated with SS-31) [islets per pancreas] | islet cell viability (Annexin V-/PI- cells) ([1]; donor mice treated with SS-31) [%] | late apoptosis/early necrosis (Annexin V+/PI+ cells) ([1]; donor mice treated with SS-31) [%] | percentage of early apoptotic cells (Annexin V alone positive cells) ([1]; donor mice treated with SS-31) [%] | percentage of necrotic cells (PI+ cells) ([1]; donor mice treated with SS-31) | LDH release ([2]; 0.1 and 1 nM of SS-31) | LDH release ([2]; 24 h) | average age of onset [3] | survival [3] | tolerability / side effects [3] | increase in survival ([3]; vs control) [%] | motor performance (rotarod) [4] | number of apoptotic cells [5] | nuclear changes (fragmentation and condensation) ([5]; 1 nM SS-31) | cells showing caspase-9 staining [6] | mitochondrial depolarization caused by tBHP [7]
Cc1cc(O)cc(C)c1C[C@H](NC(=O)[C@H](N)CCCNC(=N)N)C(=O)N[C@@H](CCCCN)C(=O)N[C@@H](Cc1ccccc1)C(N)=O [SS-31, D-Arg-2′6′-Dmt-Lys-Phe-NH2] (H-[dR][Dmt]KF-NH2; N-terminus assumed) | greater uptake of TMRM | 291±60 | 62±3.5 | 12.6±1.8 | 5.5±1.0 | did not reduce | reduced significantly | dose-dependent decrease | 95+6 days | 142+12 day | well tolerated and no side effects were observed | 9 | significantly improved | dose-dependently reduced | abolished | reduced the number of cells showing caspase-9 staining | 
2′,6′-Dmt-Arg-Phe-Lys-NH2 [SS-02] |  |  |  |  |  |  |  |  |  |  |  |  |  |  |  |  | protected against mitochondrial depolarization

From US9950026B2, “Methods for reducing oxidative damage” (Cornell Research Foundation, Inc., priority 2004, dated 2018)
